According to PMC4669685, “Peptides derived from the dependence receptor ALK are proapoptotic for ALK-positive tumors” (Cell Death & Disease, 2015):
Where a SMILES comes first, the peptide text is derived from it. The star is where a group is joined. Myristoyl = CCCCCCCCCCCCCC(=O)*

How the values were obtained:
Type in all cases: cell-based, human
[1] = tested on: Cost ALCL cells (NPM–ALK); test: Cell viability assay (CellTiterGlo, ATP content); conditions: increasing doses, 48 h
Experimental: (§1) At the end of incubation, cell viability was assessed by measuring the ATP content of wells using the luminescence-based CellTiterGlo assay (Promega) with a Berthold Mithras (http://www.berthold.com) plate reader. Each culture condition was assayed in triplicate.

[2] = tested on: SH-SY5Y neuroblastoma cells (ALK-F1174L); test: Cell viability assay (CellTiterGlo, ATP content); conditions: increasing doses, 48 h
Experimental: as §1

caspase 3 in Cost cells = test: Western blot of caspase 3 cleavage; conditions: Cost cells treated 6 h; P36 10 μM, doxorubicin 2 μM; compared with culture medium
Experimental: Cells were washed once with PBS, pelleted, and extracted in RIPA buffer (150 mM NaCl, 20 mM Tris-HCl, pH 7.7, 4 mM EDTA, 0.5% Triton X-100) containing 10 μg/ml leupeptin, 2 μg/ml aprotinin, 1 mM 4-2-aminoethyl-benzenesulfonyl fluoride, 1 mM sodium orthovanadate, and 4 mM sodium fluoride for 30 min on ice. Cell extracts were either centrifuged at 10 000 × g for 20 min at 4 °C and the supernatant recovered, or sonicated for better extraction of nuclear proteins. The protein content was quantified using the Bio-Rad (www.biorad.com) Bradford protein assay. For western blotting, total cell proteins were subjected to SDS-polyacrylamide gel electrophoresis (SDS-PAGE) in a 4–12% bis/tris acrylamide (Novex NuPAGE, Invitrogen) gradient gel using the Nupage system with Mops SDS buffer under reducing conditions and transferred for 3 h at 60 V onto a nitrocellulose membrane. The blots were hybridized with the following primary antibodies:
ZAL4 anti-human ALK rabbit monoclonal antibody (1/200, Invitrogen), phospho-ALK (Y1604) (1/1000, #3341, Cell Signaling Technology, www.cellsignal.com) rabbit antiserum, mouse monoclonal anti-caspase 3 (1/200, sc-7148, Santa Cruz Biotechnologies, www.scbt.com), rabbit polyclonal anti-p53 (1/500, #554167, BD Pharmingen, www.bdbiosciences.com) and rabbit polyclonal anti-GAPDH (1/2000, Millipore, www.millipore.com) antibodies. […]

Structure (SMILES)	effect on cell viability (cytotoxicity) [1]	effect on cell viability (cytotoxicity) [2]	caspase 3 cleavage (western blot) (caspase 3 in Cost cells)
CCCCCCCCCCCCCC(=O)N[C@@H](CC(=O)O)C(=O)N[C@@H](Cc1ccc(O)cc1)C(=O)N[C@@H](CC(N)=O)C(=O)N1CCC[C@H]1C(=O)N[C@@H](CC(N)=O)C(=O)N[C@@H](Cc1ccc(O)cc1)C(=O)N[C@@H](CS)C(=O)N[C@@H](Cc1ccccc1)C(=O)N[C@@H](C)C(=O)NCC(=O)N[C@@H](CCCCN)C(=O)N[C@H](C(N)=O)[C@@H](C)O [P12-1] (Myristoyl-DYNPNYCFAGKT-NH2)	no effect		
CCCCCCCCCCCCCC(=O)N[C@@H](CO)C(=O)N[C@@H](CO)C(=O)N[C@H](C(=O)N[C@@H](CO)C(=O)N[C@@H](CC(=O)O)C(=O)N[C@@H](CC(C)C)C(=O)N[C@@H](CCCCN)C(=O)N[C@@H](CCC(=O)O)C(=O)N[C@H](C(=O)N1CCC[C@H]1C(=O)N[C@@H](CCCNC(=N)N)C(=O)N[C@@H](CCCCN)C(N)=O)C(C)C)[C@@H](C)CC [P12-3] (Myristoyl-SSISDLKEVPRK-NH2)	dose-dependent cytotoxicity		
CCCCCCCCCCCCCC(=O)N[C@@H](CCCCN)C(=O)N[C@@H](CCC(=O)O)C(=O)N[C@H](C(=O)N1CCC[C@H]1C(=O)N[C@@H](CCCNC(=N)N)C(=O)N[C@@H](CCCCN)C(=O)N[C@@H](CC(N)=O)C(=O)N[C@H](C(=O)N[C@H](C(=O)N[C@@H](CC(C)C)C(=O)N[C@H](C(=O)N[C@@H](CCCNC(=N)N)C(N)=O)[C@@H](C)CC)[C@@H](C)O)[C@@H](C)CC)C(C)C [P12-4] (Myristoyl-KEVPRKNITLIR-NH2)	no effect		
CCCCCCCCCCCCCC(=O)N[C@@H](CC(N)=O)C(=O)N[C@H](C(=O)N[C@H](C(=O)N[C@@H](CC(C)C)C(=O)N[C@H](C(=O)N[C@@H](CCCNC(=N)N)C(=O)NCC(=O)N[C@@H](CC(C)C)C(=O)NCC(=O)N[C@@H](Cc1c[nH]cn1)C(=O)NCC(=O)N[C@@H](C)C(N)=O)[C@@H](C)CC)[C@@H](C)O)[C@@H](C)CC [P12-5] (Myristoyl-NITLIRGLGHGA-NH2)	dose-dependent cytotoxicity		
CCCCCCCCCCCCCC(=O)N[C@@H](CCC(=O)O)C(=O)NCC(=O)N[C@@H](CC(C)C)C(=O)N[C@@H](CC(C)C)C(=O)N[C@@H](Cc1ccccc1)C(=O)N[C@H](C(=O)N[C@@H](Cc1ccc(O)cc1)C(=O)N[C@@H](Cc1c[nH]cn1)C(=O)N[C@H](C(=O)N[C@H](C(=O)N[C@@H](CCCCN)C(=O)N[C@@H](CCCNC(=N)N)C(=O)N[C@@H](CC(=O)O)C(=O)N[C@@H](Cc1ccc(O)cc1)C(=O)NCC(=O)N[C@@H](CC(N)=O)C(=O)N[C@@H](CC(N)=O)C(=O)N[C@@H](CC(C)C)C(=O)N[C@@H](C)C(=O)N[C@@H](CC(=O)O)C(=O)N[C@@H](CO)C(=O)N[C@H](C(=O)NCC(=O)N1CCC[C@H]1C(=O)NCC(=O)N[C@@H](CC(N)=O)C(=O)N[C@H](C(=O)N[C@@H](CO)C(=O)N[C@@H](C)C(=O)N1CCC[C@H]1C(=O)N[C@@H](CO)C(=O)N[C@H](C(=O)N[C@@H](CS)C(=O)N[C@@H](CCCCN)C(=O)N[C@@H](CCCNC(=N)N)C(=O)N[C@@H](CCCCN)C(N)=O)[C@@H](C)CC)[C@@H](C)O)[C@@H](C)CC)[C@@H](C)O)C(C)C)[C@@H](C)CC [P36scr] (Myristoyl-EGLLFIYHVTKRDYGNNLADSIGPGNTSAPSICKRK-NH2)	failed to affect	failed to affect	
COc1cccc2c1C(=O)c1c(O)c3c(c(O)c1C2=O)C[C@@](O)(C(=O)CO)C[C@@H]3O[C@H]1C[C@H](N)[C@H](O)[C@H](C)O1 [doxorubicin]			increased caspase 3 cleavage
